ChEMBL document CHEMBL4831486, “Design, synthesis and biological evaluation of pleuromutilin-Schiff base hybrids as potent anti-MRSA agents in vitro and in vivo” (Eur J Med Chem, 2021)
Converted amounts (≈) assume the structure as drawn.

Key:
[1] = test system: Escherichia coli; experiment: Bactericidal activity against Escherichia coli ATCC 25922 assessed as inhibition of bacterial growth measured after 96 hrs by broth dilution method; type: functional
[2] = test system: Staphylococcus aureus; experiment: Bactericidal activity against Staphylococcus aureus ATCC 29213 assessed as inhibition of bacterial growth measured after 96 hrs by broth dilution method; type: functional
[3] = test system: HepG2; experiment: Cytotoxicity against human HepG2 cells assessed as reduced cell viability at 4 ug/ml measured after 16 hrs by MTT assay; type: cell-based; conditions: hepg2, 16 h, dose 4 µg/ml
[4] = test system: RAW264.7; experiment: Cytotoxicity against mouse RAW264.7 cells assessed as reduced cell viability at 4 ug/ml measured after 16 hrs by MTT assay; type: cell-based; conditions: raw264.7, 16 h, dose 4 µg/ml
[5] = test system: Staphylococcus aureus; experiment: Antibacterial activity against Staphylococcus aureus AD3 assessed as inhibition of bacterial growth measured after 24 hrs by broth dilution method; type: functional
[6] = test system: Staphylococcus aureus; experiment: Bactericidal activity against Staphylococcus aureus AD3 assessed as inhibition of bacterial growth measured after 96 hrs by broth dilution method; type: functional
[7] = test system: Staphylococcus aureus; experiment: Antibacterial activity against Staphylococcus aureus ATCC 29213 assessed as inhibition of bacterial growth measured after 24 hrs by broth dilution method; type: functional
[8] = test system: Escherichia coli; experiment: Antibacterial activity against Escherichia coli ATCC 25922 assessed as inhibition of bacterial growth measured after 24 hrs by broth dilution method; type: functional
[9] = test system: Staphylococcus aureus; experiment: Antibacterial activity against Methycillin-resistant Staphylococcus aureus ATCC 43300 assessed as inhibition of bacterial growth measured after 24 hrs by broth dilution method; type: functional
[10] = test system: Staphylococcus aureus; experiment: Bactericidal activity against Methycillin-resistant Staphylococcus aureus ATCC 43300 assessed as inhibition of bacterial growth measured after 96 hrs by broth dilution method; type: functional
[11] = test system: Staphylococcus aureus; experiment: Antibacterial activity against Staphylococcus aureus 144 assessed as inhibition of bacterial growth measured after 24 hrs by broth dilution method; type: functional
[12] = test system: Staphylococcus aureus; experiment: Bactericidal activity against Staphylococcus aureus 144 assessed as inhibition of bacterial growth measured after 96 hrs by broth dilution method; type: functional

Compound | MBC [1] [µg/mL] | MBC [2] [µg/mL] | Activity [3] | Activity [4] | MIC [5] [µg/mL] | MBC [6] [µg/mL] | MIC [7] [µg/mL] | MIC [8] [µg/mL] | MIC [9] [µg/mL] | MBC [10] [µg/mL] | MIC [11] [µg/mL] | MBC [12] [µg/mL]
C=C[C@]1(C)C[C@@H](OC(=O)CSc2nnc(C)n2/N=C/c2ccccc2Cl)[C@]2(C)[C@H](C)CC[C@]3(CCC(=O)[C@H]32)[C@@H](C)[C@@H]1O | > 64 | 2 (≈ 3.26 µM) | Non-Toxic | Non-Toxic | 1 (≈ 1.63 µM) | 4 (≈ 6.52 µM) | 1 (≈ 1.63 µM) | > 64 | 1 (≈ 1.63 µM) | 2 (≈ 3.26 µM) | 2 (≈ 3.26 µM) | 4 (≈ 6.52 µM)
C=C[C@]1(C)C[C@@H](OC(=O)CSc2nnc(C)n2/N=C/c2ccccc2O)[C@]2(C)[C@H](C)CC[C@]3(CCC(=O)[C@H]32)[C@@H](C)[C@@H]1O | > 64 | 2 (≈ 3.36 µM) | Non-Toxic | Non-Toxic | 1 (≈ 1.68 µM) | 4 (≈ 6.73 µM) | 1 (≈ 1.68 µM) | > 64 | 0.5 (≈ 0.841 µM) | 1 (≈ 1.68 µM) | 2 (≈ 3.36 µM) | 4 (≈ 6.73 µM)
C=C[C@]1(C)C[C@@H](OC(=O)CSc2nnc(C)n2/N=C/c2ccc(F)cc2)[C@]2(C)[C@H](C)CC[C@]3(CCC(=O)[C@H]32)[C@@H](C)[C@@H]1O | > 64 | 4 (≈ 6.7 µM) | Non-Toxic | Non-Toxic | 1 (≈ 1.68 µM) | 4 (≈ 6.7 µM) | 1 (≈ 1.68 µM) | > 64 | 1 (≈ 1.68 µM) | 2 (≈ 3.35 µM) | 2 (≈ 3.35 µM) | 4 (≈ 6.7 µM)
C=C[C@]1(C)C[C@@H](OC(=O)CSc2nnc(C)n2/N=C/c2cccc(C)c2)[C@]2(C)[C@H](C)CC[C@]3(CCC(=O)[C@H]32)[C@@H](C)[C@@H]1O | > 64 | 2 (≈ 3.37 µM) | Non-Toxic | Non-Toxic | 1 (≈ 1.69 µM) | 4 (≈ 6.75 µM) | 1 (≈ 1.69 µM) | > 64 | 1 (≈ 1.69 µM) | 2 (≈ 3.37 µM) | 2 (≈ 3.37 µM) | 4 (≈ 6.75 µM)
C=C[C@]1(C)C[C@@H](OC(=O)CSc2nnc(C)n2/N=C/c2ccccc2C)[C@]2(C)[C@H](C)CC[C@]3(CCC(=O)[C@H]32)[C@@H](C)[C@@H]1O | > 64 | 2 (≈ 3.37 µM) | Non-Toxic | Non-Toxic | 1 (≈ 1.69 µM) | 4 (≈ 6.75 µM) | 1 (≈ 1.69 µM) | > 64 | 1 (≈ 1.69 µM) | 2 (≈ 3.37 µM) | 2 (≈ 3.37 µM) | 4 (≈ 6.75 µM)
C=C[C@]1(C)C[C@@H](OC(=O)CSc2nnc(C)n2/N=C/c2cccc(Cl)c2)[C@]2(C)[C@H](C)CC[C@]3(CCC(=O)[C@H]32)[C@@H](C)[C@@H]1O | > 64 | 4 (≈ 6.52 µM) | Non-Toxic | Non-Toxic | 2 (≈ 3.26 µM) | 4 (≈ 6.52 µM) | 1 (≈ 1.63 µM) | > 64 | 1 (≈ 1.63 µM) | 2 (≈ 3.26 µM) | 2 (≈ 3.26 µM) | 4 (≈ 6.52 µM)
C=C[C@]1(C)C[C@@H](OC(=O)CSc2nnc(C)n2/N=C/c2ccc(Cl)cc2)[C@]2(C)[C@H](C)CC[C@]3(CCC(=O)[C@H]32)[C@@H](C)[C@@H]1O | > 64 | 2 (≈ 3.26 µM) | Non-Toxic | Non-Toxic | 1 (≈ 1.63 µM) | 4 (≈ 6.52 µM) | 1 (≈ 1.63 µM) | > 64 | 0.5 (≈ 0.815 µM) | 2 (≈ 3.26 µM) | 2 (≈ 3.26 µM) | 4 (≈ 6.52 µM)
C=C[C@]1(C)C[C@@H](OC(=O)CSc2nnc(C)n2/N=C/c2ccccc2)[C@]2(C)[C@H](C)CC[C@]3(CCC(=O)[C@H]32)[C@@H](C)[C@@H]1O | > 64 | 2 (≈ 3.46 µM) | Non-Toxic | Non-Toxic | 1 (≈ 1.73 µM) | 4 (≈ 6.91 µM) | 1 (≈ 1.73 µM) | > 64 | 0.5 (≈ 0.864 µM) | 1 (≈ 1.73 µM) | 2 (≈ 3.46 µM) | 4 (≈ 6.91 µM)
C=C[C@]1(C)C[C@@H](OC(=O)CSc2nnc(C)n2/N=C/c2cccc(F)c2)[C@]2(C)[C@H](C)CC[C@]3(CCC(=O)[C@H]32)[C@@H](C)[C@@H]1O | > 64 | 4 (≈ 6.7 µM) | Non-Toxic | Non-Toxic | 1 (≈ 1.68 µM) | 4 (≈ 6.7 µM) | 1 (≈ 1.68 µM) | > 64 | 0.5 (≈ 0.838 µM) | 1 (≈ 1.68 µM) | 2 (≈ 3.35 µM) | 4 (≈ 6.7 µM)
C=C[C@]1(C)C[C@@H](OC(=O)CSc2nnc(C)n2/N=C/c2ccccc2F)[C@]2(C)[C@H](C)CC[C@]3(CCC(=O)[C@H]32)[C@@H](C)[C@@H]1O | > 64 | 2 (≈ 3.35 µM) | Non-Toxic | Non-Toxic | 1 (≈ 1.68 µM) | 4 (≈ 6.7 µM) | 1 (≈ 1.68 µM) | > 64 | 0.5 (≈ 0.838 µM) | 1 (≈ 1.68 µM) | 2 (≈ 3.35 µM) | 4 (≈ 6.7 µM)
C=C[C@]1(C)C[C@@H](OC(=O)CO)[C@]2(C)[C@H](C)CC[C@]3(CCC(=O)[C@H]32)[C@@H](C)[C@@H]1O [PLEUROMULIN] | > 64 | 4 (≈ 10.6 µM) | – | – | 2 (≈ 5.28 µM) | 4 (≈ 10.6 µM) | 2 (≈ 5.28 µM) | > 64 | 2 (≈ 5.28 µM) | 4 (≈ 10.6 µM) | 2 (≈ 5.28 µM) | 4 (≈ 10.6 µM)
